# Laboratory results: PubChem BioAssay (NCI)
#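 Cells were grown in 96-well plates and exposed to each compound for 48 hours at five concentrations; endpoints were interpolated linearly between bracketing concentrations, or set to the highest concentration if not reached. TGI denotes the concentration required for complete inhibition of growth.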
# Columns and labels:
# Test in all cases: NCI anticancer screen, dose series, 48 h
# CCRF-CEM leukemia = tested on: CCRF-CEM leukemia
# DMS 273 small cell lung = tested on: DMS 273 small cell lung
# CAKI-1 renal = tested on: CAKI-1 renal
# IGROV1 ovarian = tested on: IGROV1 ovarian
# NCI-H522 lung = tested on: NCI-H522 lung
# SNB-78 CNS = tested on: SNB-78 CNS
# UO-31 renal = tested on: UO-31 renal
# OVCAR-3 ovarian = tested on: OVCAR-3 ovarian
# NCI-H23 lung = tested on: NCI-H23 lung
# MALME-3M melanoma = tested on: MALME-3M melanoma
# UACC-257 melanoma = tested on: UACC-257 melanoma
# HOP-62 NSCLC = tested on: HOP-62 NSCLC
# A549 NSCLC = tested on: A549 NSCLC
# DLD-1 colon = tested on: DLD-1 colon
# SK-MEL-2 melanoma = tested on: SK-MEL-2 melanoma
# HL-60(TB) leukemia = tested on: HL-60(TB) leukemia
# UACC-62 melanoma = tested on: UACC-62 melanoma
# LXFL 529 NSCLC = tested on: LXFL 529 NSCLC
# KM20L2 colon = tested on: KM20L2 colon
# HCT-116 colon = tested on: HCT-116 colon
# HCC-2998 colon = tested on: HCC-2998 colon
# OVCAR-5 ovarian = tested on: OVCAR-5 ovarian
# RPMI-8226 leukemia = tested on: RPMI-8226 leukemia
# TK-10 renal = tested on: TK-10 renal
# NCI-H226 lung = tested on: NCI-H226 lung
# MOLT-4 leukemia = tested on: MOLT-4 leukemia
# COLO 205 colon = tested on: COLO 205 colon
# A498 renal = tested on: A498 renal
# ACHN renal = tested on: ACHN renal
# EKVX NSCLC = tested on: EKVX NSCLC
# U251 CNS = tested on: U251 CNS
# SW-620 colon = tested on: SW-620 colon
# LOX IMVI melanoma = tested on: LOX IMVI melanoma
# SNB-75 CNS = tested on: SNB-75 CNS
# SF-268 CNS = tested on: SF-268 CNS
# HT29 colon = tested on: HT29 colon
# M14 melanoma = tested on: M14 melanoma
# 786-0 renal = tested on: 786-0 renal
# SK-MEL-5 melanoma = tested on: SK-MEL-5 melanoma
# OVCAR-8 ovarian = tested on: OVCAR-8 ovarian
# HCT-15 colon = tested on: HCT-15 colon
# M19-MEL melanoma = tested on: M19-MEL melanoma
# DMS 114 small cell lung = tested on: DMS 114 small cell lung
# XF 498 CNS = tested on: XF 498 CNS
# SNB-19 CNS = tested on: SNB-19 CNS
# NCI-H460 lung = tested on: NCI-H460 lung
# HOP-92 NSCLC = tested on: HOP-92 NSCLC
# RXF 393 renal = tested on: RXF 393 renal
# SN12C renal = tested on: SN12C renal
# K-562 leukemia = tested on: K-562 leukemia
# SK-MEL-28 melanoma = tested on: SK-MEL-28 melanoma
# KM12 colon = tested on: KM12 colon
# SF-539 CNS = tested on: SF-539 CNS
# OVCAR-4 ovarian = tested on: OVCAR-4 ovarian
# SK-OV-3 ovarian = tested on: SK-OV-3 ovarian
# SF-295 CNS = tested on: SF-295 CNS
# SR leukemia = tested on: SR leukemia
# HOP-18 NSCLC = tested on: HOP-18 NSCLC
smiles,measurement,setting,value
CSC1C=C(C(C)C)CCC1(C)SC (stereo unspecified),TGI,CCRF-CEM leukemia,57 µM
same,TGI,DMS 273 small cell lung,33 µM
same,TGI,CAKI-1 renal,32.4 µM
same,TGI,IGROV1 ovarian,35.5 µM
same,TGI,NCI-H522 lung,31.6 µM
same,TGI,SNB-78 CNS,32.3 µM
same,TGI,UO-31 renal,27.4 µM
same,TGI,OVCAR-3 ovarian,25.2 µM
same,TGI,NCI-H23 lung,35.7 µM
same,TGI,MALME-3M melanoma,26.1 µM
same,TGI,UACC-257 melanoma,29.4 µM
same,TGI,HOP-62 NSCLC,35.5 µM
same,TGI,A549 NSCLC,78.4 µM
same,TGI,DLD-1 colon,32.4 µM
same,TGI,SK-MEL-2 melanoma,32.8 µM
same,TGI,HL-60(TB) leukemia,27.8 µM
same,TGI,UACC-62 melanoma,47.6 µM
same,TGI,LXFL 529 NSCLC,32.9 µM
same,TGI,KM20L2 colon,56.8 µM
same,TGI,HCT-116 colon,37.1 µM
same,TGI,HCC-2998 colon,30.9 µM
same,TGI,OVCAR-5 ovarian,30.5 µM
same,TGI,RPMI-8226 leukemia,59.4 µM
same,TGI,TK-10 renal,41.4 µM
same,TGI,NCI-H226 lung,31.6 µM
same,TGI,MOLT-4 leukemia,40 µM
same,TGI,COLO 205 colon,29.7 µM
same,TGI,A498 renal,40.4 µM
same,TGI,ACHN renal,32.6 µM
same,TGI,EKVX NSCLC,44.7 µM
same,TGI,U251 CNS,33.7 µM
same,TGI,SW-620 colon,38 µM
same,TGI,LOX IMVI melanoma,32.5 µM
same,TGI,SNB-75 CNS,31.7 µM
same,TGI,SF-268 CNS,35.1 µM
same,TGI,HT29 colon,29.6 µM
same,TGI,M14 melanoma,32 µM
same,TGI,786-0 renal,31.7 µM
same,TGI,SK-MEL-5 melanoma,31.3 µM
same,TGI,OVCAR-8 ovarian,35.5 µM
same,TGI,HCT-15 colon,39.9 µM
same,TGI,M19-MEL melanoma,31.3 µM
same,TGI,DMS 114 small cell lung,30.6 µM
same,TGI,XF 498 CNS,33.8 µM
same,TGI,SNB-19 CNS,36.9 µM
same,TGI,NCI-H460 lung,30.9 µM
same,TGI,HOP-92 NSCLC,31.2 µM
same,TGI,RXF 393 renal,29 µM
same,TGI,SN12C renal,30.6 µM
same,TGI,K-562 leukemia,40.9 µM
same,TGI,SK-MEL-28 melanoma,34.2 µM
same,TGI,KM12 colon,27.7 µM
same,TGI,SF-539 CNS,33.6 µM
same,TGI,OVCAR-4 ovarian,33.9 µM
same,TGI,SK-OV-3 ovarian,39.3 µM
CC1=Nn2c(nnc2-c2ccccc2Cl)NC(C)(C)C1,TGI,CCRF-CEM leukemia,> 100 µM
same,TGI,DMS 273 small cell lung,> 100 µM
same,TGI,CAKI-1 renal,> 100 µM
same,TGI,IGROV1 ovarian,> 100 µM
same,TGI,SF-295 CNS,> 100 µM
same,TGI,NCI-H522 lung,> 100 µM
same,TGI,SNB-78 CNS,> 100 µM
same,TGI,UO-31 renal,> 100 µM
same,TGI,NCI-H23 lung,> 100 µM
same,TGI,HOP-62 NSCLC,> 100 µM
same,TGI,A549 NSCLC,> 100 µM
same,TGI,DLD-1 colon,> 100 µM
same,TGI,SK-MEL-2 melanoma,> 100 µM
same,TGI,HL-60(TB) leukemia,> 100 µM
same,TGI,UACC-62 melanoma,> 100 µM
same,TGI,LXFL 529 NSCLC,> 100 µM
same,TGI,KM20L2 colon,> 100 µM
same,TGI,HCT-116 colon,> 100 µM
same,TGI,HCC-2998 colon,> 100 µM
same,TGI,OVCAR-5 ovarian,> 100 µM
same,TGI,RPMI-8226 leukemia,54.3 µM
same,TGI,TK-10 renal,> 100 µM
same,TGI,NCI-H226 lung,> 100 µM
same,TGI,MOLT-4 leukemia,> 100 µM
same,TGI,COLO 205 colon,> 100 µM
same,TGI,ACHN renal,> 100 µM
same,TGI,EKVX NSCLC,> 100 µM
same,TGI,U251 CNS,> 100 µM
same,TGI,SW-620 colon,35.8 µM
same,TGI,LOX IMVI melanoma,> 100 µM
same,TGI,SNB-75 CNS,> 100 µM
same,TGI,SF-268 CNS,> 100 µM
same,TGI,SR leukemia,74.4 µM
same,TGI,HT29 colon,> 100 µM
same,TGI,M14 melanoma,> 100 µM
same,TGI,786-0 renal,> 100 µM
same,TGI,SK-MEL-5 melanoma,> 100 µM
same,TGI,OVCAR-8 ovarian,> 100 µM
same,TGI,HCT-15 colon,> 100 µM
same,TGI,M19-MEL melanoma,> 100 µM
same,TGI,XF 498 CNS,> 100 µM
same,TGI,SNB-19 CNS,> 100 µM
same,TGI,NCI-H460 lung,> 100 µM
same,TGI,HOP-92 NSCLC,> 100 µM
same,TGI,SN12C renal,> 100 µM
same,TGI,K-562 leukemia,> 100 µM
same,TGI,SK-MEL-28 melanoma,> 100 µM
same,TGI,KM12 colon,> 100 µM
same,TGI,SF-539 CNS,> 100 µM
same,TGI,OVCAR-4 ovarian,> 100 µM
same,TGI,SK-OV-3 ovarian,> 100 µM
CN(C)CC/C(=N\Nc1c(F)c(F)c(F)c(F)c1F)c1ccccc1,TGI,CCRF-CEM leukemia,95.5 µM
same,TGI,DMS 273 small cell lung,> 100 µM
same,TGI,IGROV1 ovarian,> 100 µM
same,TGI,HOP-18 NSCLC,> 100 µM
same,TGI,SF-295 CNS,> 100 µM
same,TGI,NCI-H522 lung,> 100 µM
same,TGI,SNB-78 CNS,> 100 µM
same,TGI,UO-31 renal,63.4 µM
same,TGI,NCI-H23 lung,> 100 µM
same,TGI,MALME-3M melanoma,> 100 µM
same,TGI,UACC-257 melanoma,80.6 µM
same,TGI,A549 NSCLC,> 100 µM
same,TGI,DLD-1 colon,> 100 µM
same,TGI,SK-MEL-2 melanoma,> 100 µM
same,TGI,HL-60(TB) leukemia,28.2 µM
same,TGI,UACC-62 melanoma,> 100 µM
same,TGI,LXFL 529 NSCLC,> 100 µM
same,TGI,KM20L2 colon,> 100 µM
same,TGI,HCT-116 colon,> 100 µM
same,TGI,OVCAR-5 ovarian,> 100 µM
same,TGI,RPMI-8226 leukemia,70.5 µM
same,TGI,TK-10 renal,> 100 µM
same,TGI,MOLT-4 leukemia,> 100 µM
same,TGI,COLO 205 colon,> 100 µM
same,TGI,A498 renal,> 100 µM
same,TGI,ACHN renal,> 100 µM
same,TGI,EKVX NSCLC,> 100 µM
same,TGI,U251 CNS,> 100 µM
same,TGI,SW-620 colon,> 100 µM
same,TGI,LOX IMVI melanoma,> 100 µM
same,TGI,SNB-75 CNS,13.1 µM
same,TGI,SF-268 CNS,> 100 µM
same,TGI,SR leukemia,47.9 µM
same,TGI,HT29 colon,> 100 µM
same,TGI,786-0 renal,> 100 µM
same,TGI,SK-MEL-5 melanoma,28 µM
same,TGI,OVCAR-8 ovarian,> 100 µM
same,TGI,HCT-15 colon,> 100 µM
same,TGI,M19-MEL melanoma,> 100 µM
same,TGI,DMS 114 small cell lung,79.2 µM
same,TGI,SNB-19 CNS,> 100 µM
same,TGI,NCI-H460 lung,> 100 µM
same,TGI,RXF 393 renal,> 100 µM
same,TGI,SN12C renal,> 100 µM
same,TGI,K-562 leukemia,> 100 µM
same,TGI,SK-MEL-28 melanoma,> 100 µM
same,TGI,KM12 colon,> 100 µM
same,TGI,SF-539 CNS,> 100 µM
same,TGI,OVCAR-4 ovarian,> 100 µM
same,TGI,SK-OV-3 ovarian,> 100 µM
